Data set [1] deals with Endothelial PAS domain-containing protein 1 (Homo sapiens, UniProt Q99814).
Description: Agonist activity at HIF-2alpha in human 786-0 cells assessed as increase in VEGF secretion incubated for 20 hrs by ELISA
Data set [2] is described as follows: MRT (0 to t) in male Sprague-Dawley rat at 5 mg/kg, po measured after 32 hrs by LC-MS/MS analysis. Particulars: in vivo.
Data set [3] is described as follows: Half-life in male Sprague-Dawley rat at 5 mg/kg, po measured after 32 hrs by LC-MS/MS analysis. Particulars: in vivo.
Data set [4] is described as follows: Clearance in male Sprague-Dawley rat at 5 mg/kg, po measured after 32 hrs by LC-MS/MS analysis. Conditions: in vivo.
A short description of data set [5]: MRT (0 to t) in male Sprague-Dawley rat at 0.5 mg/kg, iv measured after 32 hrs by LC-MS/MS analysis. Conditions: in vivo.
Data set [6] is described as follows: Half-life in male Sprague-Dawley rat at 0.5 mg/kg, iv measured after 32 hrs by LC-MS/MS analysis. Conditions: in vivo.
Data set [7] in a line: Clearance in male Sprague-Dawley rat at 0.5 mg/kg, iv measured after 32 hrs by LC-MS/MS analysis. Particulars: in vivo.
The nature of data set [8]: Volume of distribution at steady state in male Sprague-Dawley rat at 0.5 mg/kg, iv measured after 32 hrs by LC-MS/MS analysis. Particulars: in vivo.
The nature of data set [9]: in vivo. Particulars: male, Sprague-Dawley, rat, po, 5 mg/kg.
Description: AUC (0 to t) in male Sprague-Dawley rat at 5 mg/kg, po measured after 32 hrs by LC-MS/MS analysis
Data set [10] can be described thus: in vivo. Conditions: male, Sprague-Dawley, rat, po, 5 mg/kg. The source holds these as a separate data set.
Description: Tmax in male Sprague-Dawley rat at 5 mg/kg, po measured after 32 hrs by LC-MS/MS analysis
Data set [11] can be described thus: in vivo. Conditions: male, Sprague-Dawley, rat, po, 5 mg/kg. The source holds these as a separate data set.
Description: Cmax in male Sprague-Dawley rat at 5 mg/kg, po measured after 32 hrs by LC-MS/MS analysis
Data set [12] in a line: in vivo. Particulars: male, Sprague-Dawley, rat, po, 5 mg/kg. This is another data set of the same source.
Description: Oral bioavailability in male Sprague-Dawley rat at 5 mg/kg measured after 32 hrs by LC-MS/MS analysis
Data set [13] can be described thus: in vivo. Conditions: male, Sprague-Dawley, rat, iv, 0.5 mg/kg.
Description: AUC (0 to t) in male Sprague-Dawley rat at 0.5 mg/kg, iv measured after 32 hrs by LC-MS/MS analysis
Data set [14] is described as follows: in vivo. Particulars: male, Sprague-Dawley, rat, iv, 0.5 mg/kg. This is another data set of the same source.
Description: Tmax in male Sprague-Dawley rat at 0.5 mg/kg, iv measured after 32 hrs by LC-MS/MS analysis
Data set [15] in a line: in vivo. Particulars: male, Sprague-Dawley, rat, iv, 0.5 mg/kg. This is another data set of the same source.
Description: Cmax in male Sprague-Dawley rat at 0.5 mg/kg, iv measured after 32 hrs by LC-MS/MS analysis

The source of these data is ChEMBL document CHEMBL5543101, “Identification of 3-aryl-5-methyl-isoxazole-4-carboxamide derivatives and analogs as novel HIF-2α agonists through docking-based virtual screening and structural modification” (Eur J Med Chem, 2024).

Chain of Endothelial PAS domain-containing protein 1 (Q99814 whole entry, the tested form may be a part): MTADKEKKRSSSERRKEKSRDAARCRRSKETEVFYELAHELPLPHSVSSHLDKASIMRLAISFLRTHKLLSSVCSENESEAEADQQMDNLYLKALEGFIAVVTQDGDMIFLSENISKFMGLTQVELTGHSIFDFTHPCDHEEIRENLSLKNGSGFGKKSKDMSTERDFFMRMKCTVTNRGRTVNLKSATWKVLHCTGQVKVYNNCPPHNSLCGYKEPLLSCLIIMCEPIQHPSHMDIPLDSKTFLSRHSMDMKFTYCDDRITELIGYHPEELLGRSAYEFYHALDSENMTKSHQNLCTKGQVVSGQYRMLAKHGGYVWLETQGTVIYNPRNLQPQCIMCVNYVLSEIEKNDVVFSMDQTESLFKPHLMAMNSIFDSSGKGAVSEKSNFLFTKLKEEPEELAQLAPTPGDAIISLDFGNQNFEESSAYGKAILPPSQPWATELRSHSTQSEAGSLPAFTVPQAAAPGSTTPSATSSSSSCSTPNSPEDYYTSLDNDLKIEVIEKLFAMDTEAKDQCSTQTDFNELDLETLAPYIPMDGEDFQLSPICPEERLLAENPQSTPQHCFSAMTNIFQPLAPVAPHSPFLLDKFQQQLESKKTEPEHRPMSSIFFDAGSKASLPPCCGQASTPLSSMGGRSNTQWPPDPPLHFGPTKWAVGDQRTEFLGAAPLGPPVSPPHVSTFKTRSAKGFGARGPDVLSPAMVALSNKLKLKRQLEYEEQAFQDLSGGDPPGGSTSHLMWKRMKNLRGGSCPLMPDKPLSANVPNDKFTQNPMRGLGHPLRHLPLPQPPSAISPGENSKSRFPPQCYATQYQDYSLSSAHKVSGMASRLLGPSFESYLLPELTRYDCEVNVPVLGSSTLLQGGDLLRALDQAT

A word on the EC50: it is the concentration giving half of the maximal effect. High values mean a less potent agent, low ones a more potent agent. In turn, `Cc1onc(-c2ccccc2Cl)c1C(=O)Nc1cc(C(F)(F)F)ccn1` gave a concentration for a half-maximal effect (EC50) in [1] of 5.62 µM.

As to `Cc1onc(-c2ccccc2Cl)c1C(=O)N1CCOCC1`, the 50% effective concentration (EC50) in data set [1] was determined as 9.86 µM.

For `Cc1onc(-c2ccccc2F)c1C(=O)Nc1cccc(C(F)(F)F)c1`, the EC50 in [1] is 10 µM.

Consider `Nc1ncc(C(=O)Nc2cccc(C(F)(F)F)c2)c(-c2ccccc2Cl)n1`, for which a half-maximal effect in [1] (EC50) was put at 5.01 µM.

`Cc1onc(-c2ccccc2Cl)c1C(=O)Nc1cccc(C#N)c1` displayed an EC50 in data set [1] of 6.21 µM.

For orientation: MRT last means a mean duration of stay, worked out from the concentration-time curve. The term half-life denotes the time needed for the level to fall by half in the phase considered. As a reminder, the CL/F is clearance divided by bioavailability, as obtained after extravascular dosing. The term clearance denotes the rate of elimination divided by the concentration. Low values mean inefficient removal, high ones efficient removal. By Vd is commonly meant the apparent volume that relates the amount in the body to the concentration in plasma or blood. The AUC(0-t) is exposure summed from dosing to a finite time, without extrapolation to infinity. Read a high AUC(0-t) as high exposure. As a reminder, the Tmax is the time at which the peak concentration occurs. In general, Cmax refers to the highest concentration seen after dosing. The term bioavailability denotes the share of a dose that reaches the circulation, judged against a reference dose that is usually intravenous. `O=C(Nc1cccc(C(F)(F)F)c1)c1cn[nH]c1-c1ccccc1Cl`: the MRT last at 32 h in data set [2] stood at 4.6 h; in data set [5], 1.54 h. Also, the half-life at 32 h in data set [3] is 5.09 h; in data set [6], 2.53 h. In [4], this compound had a CL/F at 32 h of 8.83 mL/min/kg. In data set [7], this compound gave a clearance at 32 h of 5.33 mL/min/kg. Moreover, in [8], the Vd at 32 h was 0.53 L/kg. This compound returned a concentration giving a half-maximal response (EC50) in data set [1] of 1.78 µM. In addition, the AUC(0-t) at 32 h in “in vivo [9]” worked out at 11100 ng·h/mL; in “in vivo [13]”, 1610 ng·h/mL. Further, the time to peak (Tmax) at 32 h in the data set “in vivo [10]” was 1.33 h; in the data set “in vivo [14]” it was 1.8 min. Further, the Cmax at 32 h turned out to be 1290 ng/mL in the data set “in vivo [11]” and 1620 ng/mL in the data set “in vivo [15]”. Also, in “in vivo [12]”, the bioavailability at 32 h came to 68.7%.

As to `Cc1onc(-c2ccccc2OC(F)F)c1C(=O)Nc1cccc(C(F)(F)F)c1`, in [2], the MRT last at 32 h worked out at 7.79 h. For the same compound, in data set [1], the EC50 stood at 2.29 µM. The AUC(0-t) at 32 h in the data set “in vivo [9]” is 194 ng·h/mL; in “in vivo [13]”, 278 ng·h/mL. Moreover, the time to peak (Tmax) at 32 h in the data set “in vivo [10]” is 1.5 h; in the data set “in vivo [14]” it was 1.8 min. For the same compound, the maximum concentration (Cmax) at 32 h in “in vivo [11]” is 35.9 ng/mL; in “in vivo [15]” it was 285 ng/mL. This compound also returned a bioavailability at 32 h in the data set “in vivo [12]” of 7.02%.
